Experimental data: ChEMBL document CHEMBL1201862, “PubChem BioAssay data set” (2004)
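Briefly, cells in 96-well plates were exposed to five compound concentrations for 48 h, and endpoints were estimated by linear interpolation. Here, GI50 denotes the concentration required for 50% inhibition of growth.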 Activity calls are given as the source filed them. Rule as the data show it: active = GI50 up to about 1.1 µM and inactive = higher.

What was measured:
Assay in all cases: NCI anticancer screen, dose series, 48 h
HCT-15 = test system: HCT-15
HL-60 = test system: HL-60
UACC-257 = test system: UACC-257
UO-31 = test system: UO-31
OVCAR-4 = test system: OVCAR-4
M19-MEL = test system: M19-MEL
U-251 = test system: U-251
SW-620 = test system: SW-620
XF498 = test system: XF498
SNB-19 = test system: SNB-19
SN12C = test system: SN12C
NCI-H522 = test system: NCI-H522
HCC 2998 = test system: HCC 2998
OVCAR-8 = test system: OVCAR-8
K562 = test system: K562
SK-MEL-2 = test system: SK-MEL-2
HOP-62 = test system: HOP-62
CCRF-CEM = test system: CCRF-CEM
COLO 205 = test system: COLO 205
RPMI-8226 = test system: RPMI-8226
SK-OV-3 = test system: SK-OV-3
TK-10 = test system: TK-10
SNB-78 = test system: SNB-78
OVCAR-5 = test system: OVCAR-5
OVCAR-3 = test system: OVCAR-3
HT-29 = test system: HT-29
MOLT-4 = test system: MOLT-4
KM12 = test system: KM12
HOP-18 = test system: HOP-18
M14 = test system: M14
SF-295 = test system: SF-295
UACC-62 = test system: UACC-62
A549 = test system: A549
ACHN = test system: ACHN
NCI-H23 = test system: NCI-H23
SK-MEL-28 = test system: SK-MEL-28
DLD-1 = test system: DLD-1
SR = test system: SR
NCI-H226 = test system: NCI-H226
786-0 = test system: 786-0
Malme-3M = test system: Malme-3M
NCI-H460 = test system: NCI-H460
CAKI-1 = test system: CAKI-1
LOX IMVI = test system: LOX IMVI
EKVX = test system: EKVX
LXFL 529 = test system: LXFL 529
SF-268 = test system: SF-268
RXF 393 = test system: RXF 393
KM-20L2 = test system: KM-20L2
DMS-114 = test system: DMS-114
IGROV-1 = test system: IGROV-1
SF-539 = test system: SF-539
HOP-92 = test system: HOP-92
HCT-116 = test system: HCT-116
MCF7 = test system: MCF7
SNB-75 = test system: SNB-75
DMS-273 = test system: DMS-273
A498 = test system: A498
SK-MEL-5 = test system: SK-MEL-5
NCI/ADR-RES = test system: NCI/ADR-RES

CS/C(=N\c1ccccc1Cl)NC(=O)c1ccc(Br)cc1
GI50 (HCT-15): > 100 µM | GI50 (HL-60): 34 µM (inactive) | GI50 (UACC-257): > 100 µM (inactive) | GI50 (UO-31): > 100 µM (inactive) | GI50 (OVCAR-4): 18.2 µM (inactive) | GI50 (M19-MEL): > 100 µM (inactive) | GI50 (U-251): 39.5 µM (inactive) | GI50 (SW-620): > 100 µM (inactive) | GI50 (XF498): 46.2 µM (inactive) | GI50 (SNB-19): 33.1 µM (inactive) | GI50 (SN12C): > 100 µM (inactive) | GI50 (NCI-H522): 40.6 µM (inactive) | GI50 (HCC 2998): > 100 µM (inactive) | GI50 (OVCAR-8): > 100 µM (inactive) | GI50 (K562): 14.9 µM (inactive) | GI50 (SK-MEL-2): 66.7 µM (inactive) | GI50 (HOP-62): 21.3 µM (inactive) | GI50 (CCRF-CEM): > 10 µM (inactive) | GI50 (COLO 205): > 100 µM (inactive) | GI50 (RPMI-8226): 55.5 µM (inactive) | GI50 (SK-OV-3): 63 µM (inactive) | GI50 (TK-10): 28.2 µM (inactive) | GI50 (SNB-78): 19.1 µM (inactive) | GI50 (OVCAR-5): > 100 µM (inactive) | GI50 (OVCAR-3): > 100 µM (inactive) | GI50 (HT-29): > 100 µM (inactive) | GI50 (MOLT-4): 18.5 µM (inactive) | GI50 (KM12): > 100 µM (inactive) | GI50 (HOP-18): 25.5 µM (inactive) | GI50 (M14): 24.6 µM (inactive) | GI50 (SF-295): 59.3 µM (inactive) | GI50 (UACC-62): 28.4 µM (inactive) | GI50 (A549): 55.8 µM (inactive) | GI50 (ACHN): > 100 µM (inactive) | GI50 (NCI-H23): > 100 µM (inactive) | GI50 (SK-MEL-28): 25.9 µM (inactive) | GI50 (DLD-1): > 100 µM (inactive) | GI50 (SR): 40.5 µM (inactive) | GI50 (NCI-H226): 41 µM (inactive) | GI50 (786-0): 27.1 µM (inactive) | GI50 (Malme-3M): 33.9 µM (inactive) | GI50 (NCI-H460): > 100 µM (inactive) | GI50 (CAKI-1): 32.1 µM (inactive) | GI50 (LOX IMVI): > 100 µM (inactive) | GI50 (EKVX): > 100 µM (inactive) | GI50 (LXFL 529): 79.4 µM (inactive) | GI50 (SF-268): 59.8 µM (inactive) | GI50 (RXF 393): 31.3 µM (inactive) | GI50 (KM-20L2): > 100 µM (inactive) | GI50 (DMS-114): > 100 µM (inactive) | GI50 (IGROV-1): 62.8 µM (inactive) | GI50 (SF-539): 37.2 µM (inactive) | GI50 (HOP-92): < 0.01 µM (active) | GI50 (HCT-116): > 100 µM (inactive)

COc1ccc2c(c1)OCCc1cn[nH]c1-2
GI50 (HCT-15): 35.2 µM | GI50 (HL-60): 13.3 µM (inactive) | GI50 (UACC-257): 32.7 µM (inactive) | GI50 (MCF7): 26.7 µM (inactive) | GI50 (UO-31): 32.6 µM (inactive) | GI50 (OVCAR-4): 48.6 µM (inactive) | GI50 (M19-MEL): 69 µM (inactive) | GI50 (U-251): 28.8 µM (inactive) | GI50 (SW-620): 36.3 µM (inactive) | GI50 (XF498): 29 µM (inactive) | GI50 (SNB-19): 88.7 µM (inactive) | GI50 (SNB-75): 28.4 µM (inactive) | GI50 (SN12C): 38.6 µM (inactive) | GI50 (NCI-H522): 29 µM (inactive) | GI50 (HCC 2998): 83.4 µM (inactive) | GI50 (OVCAR-8): 55.6 µM (inactive) | GI50 (K562): 41.3 µM (inactive) | GI50 (SK-MEL-2): 29.4 µM (inactive) | GI50 (HOP-62): 56.6 µM (inactive) | GI50 (CCRF-CEM): 37.4 µM (inactive) | GI50 (COLO 205): 29.3 µM (inactive) | GI50 (SK-OV-3): 29.7 µM (inactive) | GI50 (DMS-273): 32.2 µM (inactive) | GI50 (SNB-78): 29.1 µM (inactive) | GI50 (OVCAR-5): 35.7 µM (inactive) | GI50 (OVCAR-3): 29 µM (inactive) | GI50 (HT-29): 34.8 µM (inactive) | GI50 (MOLT-4): 20.8 µM (inactive) | GI50 (KM12): 38.9 µM (inactive) | GI50 (HOP-18): 30.8 µM (inactive) | GI50 (SF-295): 54.2 µM (inactive) | GI50 (UACC-62): 22.8 µM (inactive) | GI50 (A498): 28.6 µM (inactive) | GI50 (A549): 53.8 µM (inactive) | GI50 (NCI-H23): 38.3 µM (inactive) | GI50 (SK-MEL-28): > 100 µM (inactive) | GI50 (DLD-1): 36.7 µM (inactive) | GI50 (Malme-3M): 38.9 µM (inactive) | GI50 (NCI-H460): 31.6 µM (inactive) | GI50 (CAKI-1): < 0.01 µM (active) | GI50 (LOX IMVI): 31.3 µM (inactive) | GI50 (EKVX): 4.44 µM (inactive) | GI50 (SK-MEL-5): 29.2 µM (inactive) | GI50 (SF-268): 59.4 µM (inactive) | GI50 (RXF 393): 61.2 µM (inactive) | GI50 (KM-20L2): 54 µM (inactive) | GI50 (DMS-114): 27.3 µM (inactive) | GI50 (IGROV-1): 23.4 µM (inactive) | GI50 (SF-539): 32.7 µM (inactive) | GI50 (HOP-92): 15.4 µM (inactive) | GI50 (NCI/ADR-RES): 35.3 µM (inactive) | GI50 (HCT-116): 42.4 µM (inactive)
